Reference: the CheMixHub ionic liquid set
± gives the uncertainty stated by the source.

Assay: xn = mol fraction of the nth substance listed

CCCCCC[n+]1ccn(C)c1.F[P-](F)(F)(F)(F)F + CCCCCC[n+]1ccn(C)c1.[Cl-]
101 kPa
Settings	electrical conductivity [S/m]	viscosity [mPa·s]
303 K, x2 = 0.6	0.0103 ± 0.00084	–
303 K, x2 = 0.8	0.00536 ± 0.00045	–
303.15 K, x2 = 0.2	–	960 ± 300
303.15 K, x2 = 0.4	–	1853 ± 590
308 K, x2 = 0.4	0.0299 ± 0.0024	–
308 K, x2 = 0.8	0.00862 ± 0.00071	–
308.15 K, x2 = 0	–	360 ± 110
313 K, x2 = 0	0.13 ± 0.01	–
313 K, x2 = 0.4	0.0424 ± 0.0034	–
318 K, x2 = 0.6	0.0337 ± 0.0027	–
318.15 K, x2 = 0.4	–	600 ± 190
323.15 K, x2 = 0.6	–	710 ± 220
328 K, x2 = 0	0.26 ± 0.021	–
328 K, x2 = 0.8	0.0419 ± 0.0034	–
328.15 K, x2 = 0.2	–	205 ± 62

CC#N + C[N+](C)(C)CCC[N+]1(C)CCCCC1.N#C[N-]C#N.N#C[N-]C#N
100 kPa, x2 = 0
Settings	viscosity [mPa·s]
288.15 K	0.382 ± 0.039
298.15 K	0.348 ± 0.035
303.15 K	0.333 ± 0.034
333.15 K	0.266 ± 0.027

CCCC[n+]1ccn(C)c1.F[P-](F)(F)(F)(F)F + O
Settings	electrical conductivity [S/m]	viscosity [mPa·s]
293.15 K, 100 kPa, x1 = 0.0001838	–	1.011 ± 0.041
293.15 K, 100 kPa, x1 = 0.0005385	–	1.025 ± 0.042
293.15 K, 100 kPa, x1 = 0.0008966	–	1.038 ± 0.043
293.15 K, 100 kPa, x1 = 0.001262	–	1.041 ± 0.043
298.15 K, 100 kPa, x1 = 0.0001838	–	0.905 ± 0.037
298.15 K, 100 kPa, x1 = 0.0005385	–	0.916 ± 0.038
298.15 K, 100 kPa, x1 = 0.0008966	–	0.922 ± 0.038
298.15 K, 100 kPa, x1 = 0.001262	–	0.932 ± 0.038
298.15 K, 101 kPa, x1 = 0.00129	–	0.929 ± 0.034
298.15 K, 101 kPa, x2 = 0	0.157 ± 0.019	260 ± 180
298.15 K, 101 kPa, x2 = 0.0518	0.197 ± 0.024	200 ± 110
298.15 K, 101 kPa, x2 = 0.0985	0.235 ± 0.028	154 ± 71
298.15 K, 101 kPa, x2 = 0.1409	0.281 ± 0.034	127 ± 49
298.15 K, 101 kPa, x2 = 0.1794	0.334 ± 0.04	109 ± 35
298.15 K, 101 kPa, x2 = 0.2146	0.383 ± 0.046	92 ± 24
303.15 K, 100 kPa, x1 = 0.0001838	–	0.821 ± 0.034
303.15 K, 100 kPa, x1 = 0.0005385	–	0.826 ± 0.034
303.15 K, 100 kPa, x1 = 0.001262	–	0.843 ± 0.035
308.15 K, 100 kPa, x1 = 0.0001838	–	0.742 ± 0.03
308.15 K, 100 kPa, x1 = 0.0005385	–	0.744 ± 0.031
308.15 K, 100 kPa, x1 = 0.0008966	–	0.75 ± 0.031
308.15 K, 100 kPa, x1 = 0.001262	–	0.761 ± 0.031
313.15 K, 100 kPa, x1 = 0.0001838	–	0.661 ± 0.027
313.15 K, 100 kPa, x1 = 0.0005385	–	0.674 ± 0.028
313.15 K, 100 kPa, x1 = 0.0008966	–	0.677 ± 0.028
313.15 K, 100 kPa, x1 = 0.001262	–	0.683 ± 0.028

101 kPa, frequency 6e-05 MHz
Settings	electrical conductivity [S/m]
293.2 K, x2 = 0.1	0.199 ± 0.002
298.2 K, x2 = 0.05	0.231 ± 0.002
298.2 K, x2 = 0.15	0.361 ± 0.004
308.2 K, x2 = 0.1	0.401 ± 0.004
308.2 K, x2 = 0.2	0.546 ± 0.006
313.2 K, x2 = 0.15	0.561 ± 0.006
318.2 K, x2 = 0.05	0.491 ± 0.005
318.2 K, x2 = 0.2	0.775 ± 0.008
323.2 K, x2 = 0.1	0.678 ± 0.007
333.2 K, x2 = 0.2	1.06 ± 0.011
343.2 K, x2 = 0.15	1.06 ± 0.011
353.2 K, x2 = 0.15	1.405 ± 0.014
353.2 K, x2 = 0.2	1.621 ± 0.016

CC(=O)c1ccccc1 + CCCC[n+]1ccn(C)c1.F[P-](F)(F)(F)(F)F
100 kPa
Settings	viscosity [mPa·s]
293.15 K, x1 = 0.5999	49.3 ± 9.9
303.15 K, x1 = 0.2999	45 ± 9
313.15 K, x1 = 0.4973	21.6 ± 4.3
313.15 K, x1 = 0.5999	16.5 ± 3.3
323.15 K, x1 = 0.0913	30.2 ± 6
323.15 K, x1 = 0.3908	20.1 ± 4
323.15 K, x1 = 0.697	8 ± 1.6
323.15 K, x1 = 0.7999	6 ± 1.2
323.15 K, x1 = 0.95	1.89 ± 0.38
333.15 K, x1 = 0.0913	20.3 ± 4
333.15 K, x1 = 0.2999	17.7 ± 3.6
333.15 K, x1 = 0.9002	3.48 ± 0.7
333.15 K, x1 = 1	1.09 ± 0.22

CC(CC(C)(C)C)CP(=O)([O-])CC(C)CC(C)(C)C.CCCCCCCCCCCCCC[P+](CCCCCC)(CCCCCC)CCCCCC + O
100 kPa
Settings	viscosity [mPa·s]
298.15 K, x1 = 0.1299	139 ± 9
323.15 K, x1 = 0.7943	264 ± 19

CCCCn1cc[n+](CCOCCOCCOCCOCC[n+]2ccn(CCCC)c2)c1.O=S(=O)([N-]S(=O)(=O)C(F)(F)F)C(F)(F)F.O=S(=O)([N-]S(=O)(=O)C(F)(F)F)C(F)(F)F + CC[n+]1ccn(C)c1.N#C[N-]C#N + O=S(=O)([N-]S(=O)(=O)C(F)(F)F)C(F)(F)F.[Li+]
100 kPa, x1 = 0.1333, x2 = 0.7621
Settings	electrical conductivity [S/m]
298 K	0.835 ± 0.033
303 K	0.94 ± 0.038
313 K	1.17 ± 0.047
323 K	1.52 ± 0.061
333 K	1.8 ± 0.072
343 K	2.06 ± 0.082

CCCC[n+]1cccc(C)c1.O=S(=O)([N-]S(=O)(=O)C(F)(F)F)C(F)(F)F + CCO
298.15 K, 101.3 kPa
Settings	electrical conductivity [S/m]
x2 = 0	0.273 ± 0.005
x2 = 0.4364	0.642 ± 0.013
x2 = 0.6597	0.93 ± 0.019
x2 = 0.8246	1.07 ± 0.021
